Assay results: ChEMBL document CHEMBL5360664, “Design, Construction, and Screening of Diversified Pyrimidine-Focused DNA-Encoded Libraries” (ACS Med Chem Lett, 2023)

Assays:
[1] = target: T1, Bromodomain-containing protein 4 (Homo sapiens, UniProt O60885); assay: Binding affinity to human recombinant BRD4BD1 (44 to 168 residues) expressed in Escherichia coli […] (DE3) by fluorescence polarization analysis
[2] = target: T1, Bromodomain-containing protein 4; assay: Binding affinity to human recombinant BRD4BD2 (333 to 460 residues) expressed in Escherichia coli […] (DE3) by fluorescence polarization analysis

CNc1cc(-c2ccc(=O)n(C)c2)nc(NCc2ccc(OC(F)(F)F)cc2)n1
Ki [1]: 760 nM | Ki [2]: > 100000 nM

CNc1cc(-c2ccc(=O)n(C)c2)nc(NCc2cccc3ccccc23)n1
Ki [1]: 680 nM | Ki [2]: > 100000 nM

CNc1nc(NCc2cccc(-c3ccc(=O)n(C)c3)c2)cc(-c2ccc(=O)n(C)c2)n1
Ki [1]: 910 nM | Ki [2]: 1440 nM
